Reference: PubChem BioAssay (NCI)
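Grown in 96-well plates, cells were treated for 48 hours with each compound at five concentrations. Insufficient inhibition: endpoint recorded as highest concentration tested. GI50 is the concentration that inhibits growth by half. TGI: concentration producing complete growth inhibition.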

What was measured:
Test in all cases: NCI tumour cell line growth inhibition, 48 h
NCI-H522 lung = system: NCI-H522 lung
UO-31 renal = system: UO-31 renal
SK-MEL-2 melanoma = system: SK-MEL-2 melanoma
SF-295 CNS = system: SF-295 CNS
PC-3 prostate = system: PC-3 prostate
NCI-H23 lung = system: NCI-H23 lung
MDA-MB-435 = system: MDA-MB-435
LOX IMVI melanoma = system: LOX IMVI melanoma
IGROV1 ovarian = system: IGROV1 ovarian
HL-60(TB) leukemia = system: HL-60(TB) leukemia
SN12C renal = system: SN12C renal
COLO 205 colon = system: COLO 205 colon
ACHN renal = system: ACHN renal
SF-268 CNS = system: SF-268 CNS
SK-MEL-28 melanoma = system: SK-MEL-28 melanoma
MDA-MB-231 breast = system: MDA-MB-231 breast
A498 renal = system: A498 renal
EKVX NSCLC = system: EKVX NSCLC
SK-OV-3 ovarian = system: SK-OV-3 ovarian
OVCAR-3 ovarian = system: OVCAR-3 ovarian
MALME-3M melanoma = system: MALME-3M melanoma
OVCAR-8 ovarian = system: OVCAR-8 ovarian
RXF 393 renal = system: RXF 393 renal
OVCAR-4 ovarian = system: OVCAR-4 ovarian
HCT-15 colon = system: HCT-15 colon
DU-145 prostate = system: DU-145 prostate
BT-549 breast = system: BT-549 breast
UACC-257 melanoma = system: UACC-257 melanoma
HOP-62 NSCLC = system: HOP-62 NSCLC
MCF7 breast = system: MCF7 breast
786-0 renal = system: 786-0 renal
MDA-MB-468 breast = system: MDA-MB-468 breast
SK-MEL-5 melanoma = system: SK-MEL-5 melanoma
SF-539 CNS = system: SF-539 CNS
CAKI-1 renal = system: CAKI-1 renal
KM12 colon = system: KM12 colon
HCC-2998 colon = system: HCC-2998 colon
SNB-19 CNS = system: SNB-19 CNS
TK-10 renal = system: TK-10 renal
UACC-62 melanoma = system: UACC-62 melanoma
OVCAR-5 ovarian = system: OVCAR-5 ovarian
NCI/ADR-RES ovarian = system: NCI/ADR-RES ovarian
HOP-92 NSCLC = system: HOP-92 NSCLC
A549 NSCLC = system: A549 NSCLC

SMILES: Clc1ccc2c(N/N=C/c3c[nH]c4ccc(Br)cc34)ccnc2c1
- GI50 (NCI-H522 lung): 1790 nM
- TGI (NCI-H522 lung): 3370 nM
- GI50 (UO-31 renal): 1440 nM
- TGI (UO-31 renal): 2770 nM
- GI50 (SK-MEL-2 melanoma): 1790 nM
- TGI (SK-MEL-2 melanoma): 3250 nM
- GI50 (SF-295 CNS): 1610 nM
- TGI (SF-295 CNS): 2990 nM
- GI50 (PC-3 prostate): 1310 nM
- TGI (PC-3 prostate): 2760 nM
- GI50 (NCI-H23 lung): 1110 nM
- TGI (NCI-H23 lung): 2370 nM
- GI50 (MDA-MB-435): 1690 nM
- TGI (MDA-MB-435): 3100 nM
- GI50 (LOX IMVI melanoma): 173 nM
- TGI (LOX IMVI melanoma): 330 nM
- GI50 (IGROV1 ovarian): 1650 nM
- TGI (IGROV1 ovarian): 3080 nM
- GI50 (HL-60(TB) leukemia): 469 nM
- TGI (HL-60(TB) leukemia): 1920 nM
- GI50 (SN12C renal): 1750 nM
- TGI (SN12C renal): 3170 nM
- GI50 (COLO 205 colon): 358 nM
- TGI (COLO 205 colon): 1290 nM
- GI50 (ACHN renal): 1660 nM
- TGI (ACHN renal): 3040 nM
- GI50 (SF-268 CNS): 1700 nM
- TGI (SF-268 CNS): 3530 nM
- GI50 (SK-MEL-28 melanoma): 1590 nM
- TGI (SK-MEL-28 melanoma): 2950 nM
- GI50 (MDA-MB-231 breast): 1240 nM
- TGI (MDA-MB-231 breast): 2560 nM
- GI50 (A498 renal): 1870 nM
- TGI (A498 renal): 3380 nM
- GI50 (EKVX NSCLC): 1160 nM
- TGI (EKVX NSCLC): 2400 nM
- GI50 (SK-OV-3 ovarian): 1570 nM
- TGI (SK-OV-3 ovarian): 3030 nM
- GI50 (OVCAR-3 ovarian): 1660 nM
- TGI (OVCAR-3 ovarian): 3060 nM
- GI50 (MALME-3M melanoma): 1600 nM
- TGI (MALME-3M melanoma): 3010 nM
- GI50 (OVCAR-8 ovarian): 1800 nM
- TGI (OVCAR-8 ovarian): 3350 nM
- GI50 (RXF 393 renal): 1420 nM
- TGI (RXF 393 renal): 2790 nM
- GI50 (OVCAR-4 ovarian): 1770 nM
- TGI (OVCAR-4 ovarian): 3380 nM
- GI50 (HCT-15 colon): 182 nM
- TGI (HCT-15 colon): 343 nM
- GI50 (DU-145 prostate): 924 nM
- TGI (DU-145 prostate): 2140 nM
- GI50 (BT-549 breast): 1480 nM
- TGI (BT-549 breast): 2840 nM
- GI50 (UACC-257 melanoma): 1580 nM
- TGI (UACC-257 melanoma): 2970 nM
- GI50 (HOP-62 NSCLC): 1580 nM
- TGI (HOP-62 NSCLC): 3100 nM
- GI50 (MCF7 breast): 952 nM
- TGI (MCF7 breast): 2350 nM
- GI50 (786-0 renal): 1440 nM
- TGI (786-0 renal): 2880 nM
- GI50 (MDA-MB-468 breast): 1240 nM
- TGI (MDA-MB-468 breast): 2570 nM
- GI50 (SK-MEL-5 melanoma): 1500 nM
- TGI (SK-MEL-5 melanoma): 2830 nM
- GI50 (SF-539 CNS): 1660 nM
- TGI (SF-539 CNS): 3050 nM
- GI50 (CAKI-1 renal): 1460 nM
- TGI (CAKI-1 renal): 2800 nM
- GI50 (KM12 colon): 1800 nM
- TGI (KM12 colon): 3340 nM
- GI50 (HCC-2998 colon): 762 nM
- TGI (HCC-2998 colon): 2060 nM
- GI50 (SNB-19 CNS): 1540 nM
- TGI (SNB-19 CNS): 2890 nM
- GI50 (TK-10 renal): 2270 nM
- TGI (TK-10 renal): 3780 nM
- GI50 (UACC-62 melanoma): 1660 nM
- TGI (UACC-62 melanoma): 3050 nM
- GI50 (OVCAR-5 ovarian): 1530 nM
- TGI (OVCAR-5 ovarian): 2880 nM
- GI50 (NCI/ADR-RES ovarian): 1410 nM
- TGI (NCI/ADR-RES ovarian): 2840 nM
- GI50 (HOP-92 NSCLC): 1330 nM
- TGI (HOP-92 NSCLC): 2740 nM
- GI50 (A549 NSCLC): 1580 nM
- TGI (A549 NSCLC): 3060 nM
